Some test systems named below: HCT-15 colon; CCRF-CEM leukemia; MOLT-4 leukemia; UACC-257 melanoma; SW-620 colon; MDA-MB-231 breast; UO-31 renal; KM12 colon; OVCAR-5 ovarian; K-562 leukemia; HL-60(TB) leukemia; SR leukemia; OVCAR-3 ovarian; UACC-62 melanoma; PC-3 prostate; SK-MEL-28 melanoma; MDA-N; HS 578T breast; NCI/ADR-RES ovarian; OVCAR-4 ovarian.
Assay in all cases: NCI tumour cell line growth inhibition, 48 h

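Each compound was tested at five concentrations against cells in 96-well plates for 48 hours. The concentration for full growth arrest is given as TGI.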

`O=C1N=C(SC2OC(CO)C(O)C(O)C2O)S/C1=C\c1ccccc1` (configuration not stated): the TGI with HCT-15 colon, with CCRF-CEM leukemia, in the test on MOLT-4 leukemia, in the test on UACC-257 melanoma, in the test with SW-620 colon and in the test with MDA-MB-231 breast was above 100 µM each time. Moreover, the TGI with UO-31 renal, with KM12 colon, with OVCAR-5 ovarian, in the test with K-562 leukemia, with HL-60(TB) leukemia and in the test on SR leukemia was above 100 µM in each case. Also, the TGI in the test with OVCAR-3 ovarian, in the test on UACC-62 melanoma, in the test on PC-3 prostate, in the test with SK-MEL-28 melanoma, with MDA-N and in the test with HS 578T breast was above 100 µM throughout. The compound also displayed a TGI with NCI/ADR-RES ovarian above 100 µM.

As for `O=C1CCC2(c3ccccc3)Nc3ccncc3N12` (configuration not stated), the TGI with HCT-15 colon, in the test on CCRF-CEM leukemia, in the test with MOLT-4 leukemia, with UACC-257 melanoma, with SW-620 colon and with MDA-MB-231 breast was above 10 µM each time. The TGI in the test with OVCAR-4 ovarian, with UO-31 renal, in the test with KM12 colon, in the test with OVCAR-5 ovarian, in the test on K-562 leukemia and in the test on HL-60(TB) leukemia was above 10 µM throughout. Besides, the TGI in the test with SR leukemia, with OVCAR-3 ovarian, in the test on UACC-62 melanoma, in the test on PC-3 prostate, in the test with MDA-N and with HS 578T breast was above 10 µM each time. For the same compound, in the test on NCI/ADR-RES ovarian, the TGI is above 10 µM.

As for `CC(CCC(=O)O)(c1ccc(O)cc1)c1ccc(O)cc1`, the TGI in the test on HCT-15 colon, with MOLT-4 leukemia, in the test on UACC-257 melanoma, in the test on SW-620 colon, with MDA-MB-231 breast and in the test on OVCAR-4 ovarian was above 100 µM each time. Moreover, the TGI in the test with UO-31 renal, with KM12 colon, with OVCAR-5 ovarian, with K-562 leukemia, in the test on SR leukemia and with OVCAR-3 ovarian was above 100 µM throughout. Further, the TGI in the test on UACC-62 melanoma, with PC-3 prostate, in the test with SK-MEL-28 melanoma, in the test on MDA-N, in the test with HS 578T breast and in the test with NCI/ADR-RES ovarian was above 100 µM in each case.

As to `Nc1nc(I)nc2c1ncn2C1OC(COS(N)(=O)=O)C(O)C1O` (configuration not stated), the TGI is 0.305 µM in the test with HCT-15 colon; 0.0268 µM in the test on CCRF-CEM leukemia; 0.0416 µM in the test with MOLT-4 leukemia; 0.0716 µM with UACC-257 melanoma; 0.165 µM with SW-620 colon; below 0.0238 µM in the test on MDA-MB-231 breast. Further, the TGI is below 0.0158 µM in the test with OVCAR-4 ovarian; 0.0653 µM in the test on UO-31 renal; 0.0297 µM in the test on KM12 colon; 0.0189 µM in the test with OVCAR-5 ovarian; 0.37 µM with K-562 leukemia; below 0.01 µM with SR leukemia. Moreover, the TGI in the test with OVCAR-3 ovarian was 0.012 µM; in the test on UACC-62 melanoma, 0.0606 µM; in the test on PC-3 prostate, 0.0423 µM; in the test on SK-MEL-28 melanoma, 0.0148 µM; in the test with MDA-N it was 0.0135 µM; in the test with HS 578T breast, 0.0273 µM. Further, the TGI in the test on NCI/ADR-RES ovarian was below 0.0125 µM.

With `N#Cc1c(=O)n(-c2ccccc2)c(O)c2c(N)n[nH]c12`, the TGI with HCT-15 colon, in the test with MOLT-4 leukemia, in the test on UACC-257 melanoma, with SW-620 colon, in the test on MDA-MB-231 breast and with OVCAR-4 ovarian was above 100 µM each time. Also, the TGI in the test on UO-31 renal, in the test with KM12 colon, in the test on OVCAR-5 ovarian, in the test with K-562 leukemia, in the test on HL-60(TB) leukemia and with SR leukemia was above 100 µM in each case. Further, the TGI in the test on OVCAR-3 ovarian, with UACC-62 melanoma, with PC-3 prostate, with SK-MEL-28 melanoma, in the test with MDA-N and with HS 578T breast was above 100 µM each time. In the test with NCI/ADR-RES ovarian, this compound yielded a TGI above 100 µM.

On to `C/C(Cl)=N/OC(=O)Nc1ccc(S(N)(=O)=O)c(C)c1`, for which the TGI in the test with HCT-15 colon came to 3.86 µM; in the test on CCRF-CEM leukemia, 3.99 µM; in the test on MOLT-4 leukemia, 6.12 µM; in the test on UACC-257 melanoma, 27.9 µM; in the test on SW-620 colon it was 3.27 µM; in the test with MDA-MB-231 breast it was 22 µM. The TGI was 29.3 µM with OVCAR-4 ovarian; 28.1 µM with UO-31 renal; 41.2 µM with KM12 colon; 34.4 µM in the test with OVCAR-5 ovarian; 3.35 µM in the test with K-562 leukemia; 3.05 µM with HL-60(TB) leukemia. The TGI was 8.9 µM in the test on OVCAR-3 ovarian; 35.6 µM with UACC-62 melanoma; 32.3 µM in the test on PC-3 prostate; 30.6 µM in the test with SK-MEL-28 melanoma; 24.4 µM in the test on MDA-N; above 79.4 µM in the test with HS 578T breast. For the same compound, the TGI in the test with NCI/ADR-RES ovarian was above 55.5 µM.

For the compound `CCCC/C=C/C/C=C/CCCCCCCCC(=O)OCC1CCCN2CCCCC12` (configuration not stated), the TGI in the test with HCT-15 colon, in the test with CCRF-CEM leukemia, in the test with MOLT-4 leukemia, in the test on UACC-257 melanoma, in the test with SW-620 colon and in the test on MDA-MB-231 breast was above 100 µM each time. In addition, the TGI with OVCAR-4 ovarian, with UO-31 renal, in the test on KM12 colon, in the test on OVCAR-5 ovarian, with K-562 leukemia and in the test on HL-60(TB) leukemia was above 100 µM each time. In addition, the TGI with OVCAR-3 ovarian, with UACC-62 melanoma, in the test on PC-3 prostate, in the test with SK-MEL-28 melanoma, with MDA-N and in the test with HS 578T breast was above 100 µM each time. In addition, the TGI in the test with NCI/ADR-RES ovarian is above 100 µM.

For the compound `c1ccc(-c2nc3ccccc3n3c(CN4CCCCC4)nnc23)cc1`, the TGI in the test on HCT-15 colon, with CCRF-CEM leukemia, in the test on MOLT-4 leukemia, with UACC-257 melanoma, in the test on SW-620 colon and in the test with MDA-MB-231 breast was above 100 µM throughout. Moreover, the TGI in the test on OVCAR-4 ovarian, with OVCAR-5 ovarian, with K-562 leukemia, in the test on SR leukemia, in the test on OVCAR-3 ovarian and in the test with UACC-62 melanoma was above 100 µM in each case. Moreover, the TGI in the test with PC-3 prostate, with SK-MEL-28 melanoma, in the test with MDA-N, in the test on HS 578T breast and with NCI/ADR-RES ovarian was above 100 µM each time.

For `O=C(O)COCC(=O)N(CCOCCN(Cc1ccccc1)C(=O)COCC(=O)O)Cc1ccccc1`, the TGI in the test with HCT-15 colon, in the test on CCRF-CEM leukemia, with MOLT-4 leukemia, with UACC-257 melanoma, in the test with SW-620 colon and in the test on MDA-MB-231 breast was above 100 µM in each case. Further, the TGI with KM12 colon, with OVCAR-5 ovarian, in the test on K-562 leukemia, in the test with HL-60(TB) leukemia, with SR leukemia and in the test with OVCAR-3 ovarian was above 100 µM each time. Besides, the TGI in the test on UACC-62 melanoma, with PC-3 prostate, in the test with SK-MEL-28 melanoma, in the test on MDA-N, in the test on HS 578T breast and in the test with NCI/ADR-RES ovarian was above 100 µM throughout.

As for `CCOC(=O)c1oc2cc3c(c4c2c1-c1ccccc1N4C)C=CC(C)(C)O3`, the TGI with HCT-15 colon, in the test with CCRF-CEM leukemia, in the test with MOLT-4 leukemia, in the test on UACC-257 melanoma, with SW-620 colon and in the test with MDA-MB-231 breast was above 100 µM throughout. Further, the TGI was above 100 µM in the test on OVCAR-4 ovarian; 65.5 µM with UO-31 renal; above 80.4 µM in the test with KM12 colon; above 100 µM in the test with OVCAR-5 ovarian; above 91 µM in the test on K-562 leukemia; above 100 µM in the test with HL-60(TB) leukemia. In addition, the TGI in the test with OVCAR-3 ovarian is 45.3 µM; in the test on UACC-62 melanoma, above 43.4 µM; in the test on PC-3 prostate, above 55.3 µM; with SK-MEL-28 melanoma, above 95.4 µM; in the test on MDA-N, above 100 µM; in the test with HS 578T breast, 75.1 µM. The compound further came in with a TGI with NCI/ADR-RES ovarian of 27.6 µM.

Consider `C=C1[C@H](OC(C)=O)[C@H]2[C@@H](OC(C)=O)[C@@H](C)C[C@]2(C)C(=O)[C@H](C)/C=C/C(C)(C)C(=O)[C@H](OCC(C)C)[C@H]1OC(C)=O`, for which the TGI with HCT-15 colon, with CCRF-CEM leukemia, in the test with MOLT-4 leukemia, with UACC-257 melanoma, with SW-620 colon and with MDA-MB-231 breast was above 25 µM each time. Moreover, the TGI with OVCAR-4 ovarian, with UO-31 renal, with KM12 colon, in the test on OVCAR-5 ovarian, with HL-60(TB) leukemia and in the test on SR leukemia was above 25 µM each time. In addition, the TGI in the test on OVCAR-3 ovarian, with UACC-62 melanoma, in the test on PC-3 prostate, in the test with MDA-N, in the test on HS 578T breast and with NCI/ADR-RES ovarian was above 25 µM throughout.

For the compound `CC(C)(C)/C(=N\Nc1nc2ccccc2[nH]1)c1ccccn1`, the TGI in the test on HCT-15 colon, in the test on CCRF-CEM leukemia, in the test with MOLT-4 leukemia, in the test on UACC-257 melanoma, in the test on SW-620 colon and in the test with MDA-MB-231 breast was above 100 µM each time. For the same compound, the TGI in the test with OVCAR-4 ovarian is above 100 µM; with UO-31 renal, above 100 µM; in the test on KM12 colon, above 100 µM; in the test on K-562 leukemia, above 100 µM; with SR leukemia, above 100 µM; in the test with OVCAR-3 ovarian it was 73.3 µM. Also, the TGI in the test on UACC-62 melanoma, with PC-3 prostate, in the test with SK-MEL-28 melanoma, in the test on MDA-N, with HS 578T breast and in the test on NCI/ADR-RES ovarian was above 100 µM in each case.

The values above are taken from PubChem BioAssay (NCI).
